Test results published in ChEMBL document CHEMBL1201862, “PubChem BioAssay data set” (2004).
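Protocol summary: plate cells (96-well), add compound at 5 concentrations, incubate 48 h, interpolate endpoints linearly. Here, GI50 denotes the concentration required for 50% inhibition of growth.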 The source made the active and inactive calls. Cut-off read from the data, not from the text of the source: active = GI50 up to about 1.1 µM and inactive = higher.

Columns and labels:
Assay in all cases: NCI anticancer screen, dose series, 48 h
NCI-H522 = system: NCI-H522
LOX IMVI = system: LOX IMVI
SK-MEL-28 = system: SK-MEL-28
OVCAR-4 = system: OVCAR-4
SNB-75 = system: SNB-75
HOP-62 = system: HOP-62
MOLT-4 = system: MOLT-4
SW-620 = system: SW-620
OVCAR-3 = system: OVCAR-3
ACHN = system: ACHN
Malme-3M = system: Malme-3M
OVCAR-5 = system: OVCAR-5
UACC-62 = system: UACC-62
OVCAR-8 = system: OVCAR-8
EKVX = system: EKVX
HCT-15 = system: HCT-15
SK-MEL-2 = system: SK-MEL-2
CAKI-1 = system: CAKI-1
COLO 205 = system: COLO 205

| SMILES | GI50 (NCI-H522) | GI50 (LOX IMVI) | GI50 (SK-MEL-28) | GI50 (OVCAR-4) | GI50 (SNB-75) | GI50 (HOP-62) | GI50 (MOLT-4) | GI50 (SW-620) | GI50 (OVCAR-3) | GI50 (ACHN) | GI50 (Malme-3M) | GI50 (OVCAR-5) | GI50 (UACC-62) | GI50 (OVCAR-8) | GI50 (EKVX) | GI50 (HCT-15) [µM] | GI50 (SK-MEL-2) | GI50 (CAKI-1) | GI50 (COLO 205) |
| --- | --- | --- | --- | --- | --- | --- | --- | --- | --- | --- | --- | --- | --- | --- | --- | --- | --- | --- | --- |
| CC1=CC2=C(C#N)C(=O)OC2(C)C(c2ccccc2)C1 (stereo not given) | > 100 µM (inactive) | > 100 µM (inactive) | > 100 µM (inactive) | 87.7 µM (inactive) | 16.2 µM (inactive) | > 100 µM (inactive) | > 100 µM (inactive) | > 100 µM (inactive) | > 100 µM (inactive) | > 100 µM (inactive) | > 100 µM (inactive) | > 100 µM (inactive) | > 100 µM (inactive) | > 100 µM (inactive) | > 100 µM (inactive) | > 100 | > 100 µM (inactive) |  |  |
| Cc1cc(O)c(C(C)C)cc1NC(=O)Nc1cccc2ccccc12 | 15.1 µM (inactive) | 19.8 µM (inactive) | 23.2 µM (inactive) | 6.43 µM (inactive) |  | 16.4 µM (inactive) | 33.8 µM (inactive) | 27.9 µM (inactive) | 16 µM (inactive) | 14.6 µM (inactive) | 19.5 µM (inactive) | 17.8 µM (inactive) | 13 µM (inactive) | 30.8 µM (inactive) | 14.7 µM (inactive) | 20.7 | 15.3 µM (inactive) | 16.2 µM (inactive) |  |
| CCn1c2ccccc2c2cc(Nc3cc(C)[nH]c(=O)n3)ccc21 | 0.916 µM (active) |  | > 100 µM (inactive) | > 100 µM (inactive) |  | > 100 µM (inactive) |  | > 100 µM (inactive) | > 100 µM (inactive) | > 100 µM (inactive) |  | > 100 µM (inactive) | 0.349 µM (active) | > 100 µM (inactive) | > 100 µM (inactive) | > 100 | > 100 µM (inactive) | > 100 µM (inactive) | > 100 µM (inactive) |
| N=C1C=C(N)C(=O)c2[nH]c(=O)ccc21 | 1.56 µM (inactive) | 2 µM (inactive) | 20.6 µM (inactive) | 1.38 µM (inactive) |  | 1.92 µM (inactive) | 3.5 µM (inactive) | 2.88 µM (inactive) | 1.54 µM (inactive) | 1.73 µM (inactive) | 2.39 µM (inactive) | 2.5 µM (inactive) | 2.3 µM (inactive) |  | 1.92 µM (inactive) | 2.06 | 2.36 µM (inactive) | 5.16 µM (inactive) | 1.73 µM (inactive) |
| CCCCCCCCCCCCc1ccsc1-c1ccc(-c2ccc(-c3sc(-c4cc(CCCCCCCCCCCC)c(-c5ccc(-c6ccc(-c7sccc7CCCCCCCCCCCC)s6)s5)s4)cc3CCCCCCCCCCCC)s2)s1 | > 100 µM (inactive) |  | > 100 µM (inactive) | > 100 µM (inactive) | > 100 µM (inactive) | > 100 µM (inactive) | > 100 µM (inactive) | > 100 µM (inactive) | > 100 µM (inactive) | > 100 µM (inactive) |  | > 100 µM (inactive) | > 100 µM (inactive) | > 100 µM (inactive) | > 100 µM (inactive) | > 100 | > 100 µM (inactive) | > 100 µM (inactive) | > 100 µM (inactive) |
| CCOC(=O)C1CCC/C1=N\NC(=N)N.Cc1cc(O)c(C(C)C)cc1S(=O)(=O)O (stereo not given) | > 100 µM (inactive) | > 100 µM (inactive) | > 100 µM (inactive) | > 100 µM (inactive) | 36.2 µM (inactive) | > 100 µM (inactive) | > 100 µM (inactive) | > 100 µM (inactive) | > 100 µM (inactive) | > 100 µM (inactive) | > 100 µM (inactive) | > 100 µM (inactive) | > 100 µM (inactive) | > 100 µM (inactive) | > 100 µM (inactive) | > 100 | > 100 µM (inactive) |  | > 100 µM (inactive) |
| Nc1nc(N)c2c(-c3ccccc3)ccnc2n1 | > 100 µM (inactive) | > 100 µM (inactive) | 40.5 µM (inactive) | > 100 µM (inactive) |  | > 100 µM (inactive) | > 10 µM (inactive) | 39.7 µM (inactive) | > 100 µM (inactive) | > 100 µM (inactive) | > 100 µM (inactive) | > 100 µM (inactive) | > 100 µM (inactive) |  | 18.5 µM (inactive) |  | > 100 µM (inactive) | > 100 µM (inactive) | > 100 µM (inactive) |
| Cc1nc(N)nc(S)c1CCC(=O)O | > 100 µM (inactive) | > 100 µM (inactive) | > 100 µM (inactive) | > 100 µM (inactive) |  | > 100 µM (inactive) | > 100 µM (inactive) | > 100 µM (inactive) | > 100 µM (inactive) | > 100 µM (inactive) | > 100 µM (inactive) | > 100 µM (inactive) | > 100 µM (inactive) | > 100 µM (inactive) | > 100 µM (inactive) | > 100 | > 100 µM (inactive) | > 100 µM (inactive) | > 100 µM (inactive) |
| CCN(CC)CCNc1ccc2ncn3c4c(OC)cccc4c(=O)c1c23 | 4.4 µM (inactive) |  | 6.47 µM (inactive) | 2.93 µM (inactive) | 11.3 µM (inactive) | 6.67 µM (inactive) | 0.912 µM (active) | 1.08 µM (active) | 0.863 µM (active) | 3.38 µM (inactive) | 6.76 µM (inactive) |  | 6.68 µM (inactive) | 6.38 µM (inactive) | 4.15 µM (inactive) | 3.85 |  | 4.89 µM (inactive) | 1.91 µM (inactive) |
| CC(=O)c1ccc(Nc2nc3ccccc3c3occc23)cc1 | 2.88 µM (inactive) | 9.57 µM (inactive) | 2.34 µM (inactive) | 1.79 µM (inactive) |  | 12.4 µM (inactive) | 1.85 µM (inactive) |  | 14.9 µM (inactive) | 11.1 µM (inactive) | 23.3 µM (inactive) | 36 µM (inactive) | 10.7 µM (inactive) | 32.5 µM (inactive) | 15.9 µM (inactive) | 5.08 | 14.6 µM (inactive) | 3.26 µM (inactive) | 8.99 µM (inactive) |
| S=C(S)NCNC(=S)S |  | > 100 µM (inactive) | > 100 µM (inactive) | > 100 µM (inactive) | > 100 µM (inactive) | > 100 µM (inactive) | > 100 µM (inactive) | > 100 µM (inactive) | > 100 µM (inactive) | > 100 µM (inactive) | > 100 µM (inactive) | > 100 µM (inactive) | > 100 µM (inactive) | > 100 µM (inactive) | > 100 µM (inactive) | > 100 |  | > 100 µM (inactive) | > 100 µM (inactive) |
| CN(C)C(=O)C(F)(F)C(c1ccc(F)cc1)C1C(=O)N(C)C(=O)N(C)C1=O (stereo not given) |  | > 100 µM (inactive) | > 100 µM (inactive) | > 100 µM (inactive) | > 100 µM (inactive) | > 100 µM (inactive) | > 100 µM (inactive) | > 100 µM (inactive) | > 100 µM (inactive) | > 100 µM (inactive) |  | > 100 µM (inactive) | > 100 µM (inactive) | > 100 µM (inactive) | > 100 µM (inactive) | > 100 | > 100 µM (inactive) | > 100 µM (inactive) | > 100 µM (inactive) |
| CCCN1CC=C(c2cc(C(=O)OCC)[nH]c2-c2cc(C)no2)C1=O |  | > 100 µM (inactive) | > 100 µM (inactive) | > 100 µM (inactive) | 30.8 µM (inactive) | > 100 µM (inactive) | 53.6 µM (inactive) | > 100 µM (inactive) | > 100 µM (inactive) |  | > 100 µM (inactive) | > 100 µM (inactive) | > 100 µM (inactive) | > 100 µM (inactive) | > 100 µM (inactive) | > 100 | > 100 µM (inactive) | > 100 µM (inactive) | > 100 µM (inactive) |
| Cc1cc2cc3ccccc3cc2c(=O)[nH]1 | > 10 µM (inactive) | > 10 µM (inactive) |  | > 10 µM (inactive) | > 10 µM (inactive) |  | > 10 µM (inactive) | > 10 µM (inactive) | > 10 µM (inactive) | > 10 µM (inactive) |  | > 10 µM (inactive) | > 10 µM (inactive) | > 10 µM (inactive) | > 10 µM (inactive) |  |  |  |  |
| CCCCCCCCCCCCCCCCCC(=O)Nc1ccn(C2CCC(COP(=O)(O)O)O2)c(=O)n1 (stereo not given) | > 100 µM (inactive) | > 100 µM (inactive) | > 100 µM (inactive) | > 100 µM (inactive) | > 100 µM (inactive) | > 100 µM (inactive) | > 100 µM (inactive) | > 100 µM (inactive) | > 100 µM (inactive) | > 100 µM (inactive) |  | > 100 µM (inactive) | > 100 µM (inactive) | > 100 µM (inactive) | > 100 µM (inactive) | > 100 | > 100 µM (inactive) | > 100 µM (inactive) | > 100 µM (inactive) |
| COc1cc(C2SCC(=O)N2c2ccc(-n3c(-c4ccccc4)nc4ccccc4c3=O)cc2)ccc1O (stereo not given) | 33 µM (inactive) | 54.6 µM (inactive) | > 100 µM (inactive) | 65.6 µM (inactive) |  | > 100 µM (inactive) | 24.2 µM (inactive) | > 100 µM (inactive) | > 100 µM (inactive) | > 100 µM (inactive) | 54.7 µM (inactive) | > 100 µM (inactive) | 26.1 µM (inactive) | > 100 µM (inactive) | > 100 µM (inactive) | 64.1 | > 100 µM (inactive) | > 100 µM (inactive) | > 100 µM (inactive) |
| COc1ccc(C(C)NNC(=O)c2ccncc2)cc1OC (stereo not given) |  | > 100 µM (inactive) | > 100 µM (inactive) | > 100 µM (inactive) | > 100 µM (inactive) | > 100 µM (inactive) | > 100 µM (inactive) | > 100 µM (inactive) | > 100 µM (inactive) | > 100 µM (inactive) | > 100 µM (inactive) | > 100 µM (inactive) | > 100 µM (inactive) | > 100 µM (inactive) | > 100 µM (inactive) | > 100 | > 100 µM (inactive) | > 100 µM (inactive) | > 100 µM (inactive) |
